Test results reported in US20240116892A1, “HETEROCYCLIC AMIDE AND UREA COMPOUNDS AS JAK2 INHIBITORS” (Ajax Therapeutics, Inc., priority 2022, published 2024).

molecular target: JAK2 (JH1 domain-catalytic, Y1007F, Y1008F) kinase (Homo sapiens (Human), UniProt O60674, Y1007F/Y1008F); assay: JAK2 JH1 Domain Binding Assay; conditions: qPCR readout
Experimental: JAK2 (JH1 domain-catalytic, Y1007F, Y1008F) kinase was expressed as N-terminal fusion to the DNA binding domain of NFkB in transiently transfected HEK293 cells and subsequently tagged with DNA for qPCR detection. Streptavidin-coated magnetic beads were treated with biotinylated small molecule ligands for 30 minutes at room temperature to generate affinity resins for kinase assays. The liganded beads were blocked with excess biotin and washed with blocking buffer (SeaBlock (Pierce), 1% BSA, 0.05% Tween 20, 1 mmol/L DTT) to remove unbound ligand and to reduce nonspecific phage binding. Binding reactions were assembled by combining kinases, liganded affinity beads, and test compounds in 1× binding buffer (1× PBS, 0.05% Tween 20, 0.1% BSA, 1 mmol/L DTT). Test compound was prepared as 111× stocks in 100% DMSO and directly diluted into the assay wells. All reactions were performed in polypropylene 384-well plates in a final volume of 0.02 mL. The assay plates were incubated at room temperature with shaking for 1 hour and the affinity beads were washed with wash buffer (1× PBS, 0.05% Tween 20). The beads were then re-suspended in elution buffer (1× PBS, 0.05% Tween 20, 0.5 μmol/L non-biotinylated affinity ligand) and incubated at room temperature with shaking for 30 minutes. The kinase concentration in the eluate was measured by qPCR.

Chain of JAK2 (JH1 domain-catalytic, Y1007F, Y1008F) kinase (O60674 849-1124 Y1007F/Y1008F): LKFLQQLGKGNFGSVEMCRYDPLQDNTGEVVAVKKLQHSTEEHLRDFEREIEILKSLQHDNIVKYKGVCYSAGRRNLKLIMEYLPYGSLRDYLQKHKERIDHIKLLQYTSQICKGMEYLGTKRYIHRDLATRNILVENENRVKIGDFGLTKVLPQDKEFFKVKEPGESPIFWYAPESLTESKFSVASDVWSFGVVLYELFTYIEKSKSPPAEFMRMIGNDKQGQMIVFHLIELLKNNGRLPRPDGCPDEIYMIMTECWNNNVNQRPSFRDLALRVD

Compound	Kd [nM]
1-(1-(3-((1R,2R)-2-hydroxycyclobutoxy)-1H-pyrazolo[3,4-b]pyridin-5-yl)piperidin-4-yl)-1-methyl-3-(1-methyl-2-oxo-5-(trifluoromethyl)-1,2-dihydropyridin-3-yl)urea and 1-(1-(3-((1S,2S)-2-hydroxycyclobutoxy)-1H-pyrazolo[3,4-b]pyridin-5-yl)piperidin-4-yl)-1-methyl-3-(1-methyl-2-oxo-5-(trifluoromethyl)-1,2-dihydropyridin-3-yl)urea [Example I-184-a]	50 to 1000
1-(1-(3-((1R,2R)-2-hydroxycyclobutoxy)-1H-pyrazolo[3,4-b]pyridin-5-yl)piperidin-4-yl)-1-methyl-3-(1-methyl-2-oxo-5-(trifluoromethyl)-1,2-dihydropyridin-3-yl)urea and 1-(1-(3-((1S,2S)-2-hydroxycyclobutoxy)-1H-pyrazolo[3,4-b]pyridin-5-yl)piperidin-4-yl)-1-methyl-3-(1-methyl-2-oxo-5-(trifluoromethyl)-1,2-dihydropyridin-3-yl)urea [Example I-184-b]	1000 to 5000
CN(C(=O)Nc1cc(C(F)(F)F)ccn1)[C@@H]1CCN(c2cnc3[nH]ncc3c2)CC1(F)F (mixture of isomers) [Example I-146-a, (R)-1-(3,3-difluoro-1-(1H-pyrazolo[3,4-b]pyridin-5-yl)piperidin-4-yl)-1-methyl-3-(4-(trifluoromethyl)pyridin-2-yl)urea and (S)-1-(3,3-difluoro-1-(1H-pyrazolo[3,4-b]pyridin-5-yl)piperidin-4-yl)-1-methyl-3-(4-(trifluoromethyl)pyridin-2-yl)urea]	< 10
CN(C(=O)Nc1cc(C(F)(F)F)ccn1)[C@H]1CCN(c2cnc3[nH]ncc3c2)CC1(F)F (mixture of isomers) [Example I-146-b, (R)-1-(3,3-difluoro-1-(1H-pyrazolo[3,4-b]pyridin-5-yl)piperidin-4-yl)-1-methyl-3-(4-(trifluoromethyl)pyridin-2-yl)urea and (S)-1-(3,3-difluoro-1-(1H-pyrazolo[3,4-b]pyridin-5-yl)piperidin-4-yl)-1-methyl-3-(4-(trifluoromethyl)pyridin-2-yl)urea]	< 10
CN(C(=O)Nc1cncc(C(F)(F)F)c1)[C@@H]1CCN(c2cnc3[nH]ncc3c2)CC1(F)F.CN(C(=O)Nc1cncc(C(F)(F)F)c1)[C@H]1CCN(c2cnc3[nH]ncc3c2)CC1(F)F (mixture of isomers) [Example I-147-a, (R)-1-(3,3-difluoro-1-(1H-pyrazolo[3,4-b]pyridin-5-yl)piperidin-4-yl)-1-methyl-3-(5-(trifluoromethyl)pyridin-3-yl)urea and (S)-1-(3,3-difluoro-1-(1H-pyrazolo[3,4-b]pyridin-5-yl)piperidin-4-yl)-1-methyl-3-(5-(trifluoromethyl)pyridin-3-yl)urea]	< 10
CN(C(=O)Nc1cc(C(F)(F)F)cn(C)c1=O)[C@@H]1CC=C(c2cnc3[nH]cc(N4CCOCC4)c3n2)CC1.CN(C(=O)Nc1cc(C(F)(F)F)cn(C)c1=O)[C@H]1CC=C(c2cnc3[nH]cc(N4CCOCC4)c3n2)CC1 (mixture of isomers) [Example I-165-a, (S)-1-methyl-3-(1-methyl-2-oxo-5-(trifluoromethyl)-1,2-dihydropyridin-3-yl)-1-(4-(7-morpholino-5H-pyrrolo[2,3-b]pyrazin-2-yl)cyclohex-3-en-1-yl)urea and (R)-1-methyl-3-(1-methyl-2-oxo-5-(trifluoromethyl)-1,2-dihydropyridin-3-yl)-1-(4-(7-morpholino-5H-pyrrolo[2,3-b]pyrazin-2-yl)cyclohex-3-en-1-yl)urea]	< 10
CN(C(=O)Nc1cc(C(F)(F)F)cn(C)c1=O)C12CC(c3cnc4[nH]nc(OC5CCOC5)c4c3)(C1)C2 (mixture of isomers) [Example I-166, (S)-1-methyl-3-(1-methyl-2-oxo-5-(trifluoromethyl)-1,2-dihydropyridin-3-yl)-1-(3-(3-((tetrahydrofuran-3-yl)oxy)-1H-pyrazolo[3,4-b]pyridin-5-yl)bicyclo[1.1.1]pentan-1-yl)urea and (R)-1-methyl-3-(1-methyl-2-oxo-5-(trifluoromethyl)-1,2-dihydropyridin-3-yl)-1-(3-(3-((tetrahydrofuran-3-yl)oxy)-1H-pyrazolo[3,4-b]pyridin-5-yl)bicyclo[1.1.1]pentan-1-yl)urea]	< 10
CN(C(=O)Nc1cc(C(F)(F)F)cn(C)c1=O)[C@@H]1CCN(c2cnc3[nH]ncc3c2)C[C@H]1OC(F)F.CN(C(=O)Nc1cc(C(F)(F)F)cn(C)c1=O)[C@H]1CCN(c2cnc3[nH]ncc3c2)C[C@@H]1OC(F)F (mixture of isomers) [Example I-167-a, 1-((3S,4S)-3-(difluoromethoxy)-1-(1H-pyrazolo[3,4-b]pyridin-5-yl)piperidin-4-yl)-1-methyl-3-(1-methyl-2-oxo-5-(trifluoromethyl)-1,2-dihydropyridin-3-yl)urea and 1-((3R,4R)-3-(difluoromethoxy)-1-(1H-pyrazolo[3,4-b]pyridin-5-yl)piperidin-4-yl)-1-methyl-3-(1-methyl-2-oxo-5-(trifluoromethyl)-1,2-dihydropyridin-3-yl)urea]	50 to 1000
CC(=O)Nc1c[nH]c2ncc(N3CC[C@@H](N(C)C(=O)Nc4cc(C(F)(F)F)cn(C)c4=O)C(F)(F)C3)cc12 (mixture of isomers) [Example I-172-a, (R)—N-(5-(3,3-difluoro-4-(1-methyl-3-(1-methyl-2-oxo-5-(trifluoromethyl)-1,2-dihydropyridin-3-yl)ureido)piperidin-1-yl)-1H-pyrrolo[2,3-b]pyridin-3-yl)acetamide and (S)—N-(5-(3,3-difluoro-4-(1-methyl-3-(1-methyl-2-oxo-5-(trifluoromethyl)-1,2-dihydropyridin-3-yl)ureido)piperidin-1-yl)-1H-pyrrolo[2,3-b]pyridin-3-yl)acetamide]	< 10
CC(=O)Nc1c[nH]c2ncc(N3CC[C@H](N(C)C(=O)Nc4cc(C(F)(F)F)cn(C)c4=O)C(F)(F)C3)cc12 (mixture of isomers) [Example I-172-b, (R)—N-(5-(3,3-difluoro-4-(1-methyl-3-(1-methyl-2-oxo-5-(trifluoromethyl)-1,2-dihydropyridin-3-yl)ureido)piperidin-1-yl)-1H-pyrrolo[2,3-b]pyridin-3-yl)acetamide and (S)—N-(5-(3,3-difluoro-4-(1-methyl-3-(1-methyl-2-oxo-5-(trifluoromethyl)-1,2-dihydropyridin-3-yl)ureido)piperidin-1-yl)-1H-pyrrolo[2,3-b]pyridin-3-yl)acetamide]	< 10
CN(C(=O)Nc1cc(C(F)(F)F)cn(C)c1=O)[C@@H]1CCN(c2cnccn2)CC1(F)F (single isomer, unassigned) [Example I-22-a]	10 to 50
CN(C(=O)Nc1cc(C(F)(F)F)cn(C)c1=O)[C@H]1CCN(c2cnccn2)CC1(F)F (single isomer, unassigned) [Example I-22-b]	10 to 50
CN(C(=O)Nc1cc(C(F)(F)F)cn(C)c1=O)[C@@H]1CCN(c2cnc3[nH]ccc3n2)CC1(F)F (single isomer, unassigned) [Example I-27-a]	< 10
CN(C(=O)Nc1cc(C(F)(F)F)cn(C)c1=O)[C@H]1CCN(c2cnc3[nH]ccc3n2)CC1(F)F (single isomer, unassigned) [Example I-27-b]	< 10
Cc1c[nH]c2ncc(N3CCC(N(C)C(=O)Nc4cc(C(F)(F)F)cn(C)c4=O)C(F)(F)C3)nc12 (single isomer, unassigned) [Example I-33-a, (R)- or (S)-1-(3,3-difluoro-1-(7-methyl-5H-pyrrolo[2,3-b]pyrazin-2-yl)piperidin-4-yl)-1-methyl-3-(1-methyl-2-oxo-5-(trifluoromethyl)-1,2-dihydropyridin-3-yl)urea]	< 10
Cc1c[nH]c2ncc(N3CCC(N(C)C(=O)Nc4cc(C(F)(F)F)cn(C)c4=O)C(F)(F)C3)nc12 (single isomer, unassigned) [Example I-33-b, (S)- or (R)-1-(3,3-difluoro-1-(7-methyl-5H-pyrrolo[2,3-b]pyrazin-2-yl)piperidin-4-yl)-1-methyl-3-(1-methyl-2-oxo-5-(trifluoromethyl)-1,2-dihydropyridin-3-yl)urea]	< 10
CN(C(=O)Nc1cc(C(F)(F)F)cn(C)c1=O)[C@@H]1CCN(c2cnc(NC(=O)C3CC3)cn2)CC1(F)F (single isomer, unassigned) [Example I-34-a]	< 10
CN(C(=O)Nc1cc(C(F)(F)F)cn(C)c1=O)[C@H]1CCN(c2cnc(NC(=O)C3CC3)cn2)CC1(F)F (single isomer, unassigned) [Example I-34-b]	< 10
CC(=O)Nc1cnc(N2CC[C@@H](N(C)C(=O)Nc3cc(C(F)(F)F)cn(C)c3=O)C(F)(F)C2)cn1 (single isomer, unassigned) [Example I-35-a]	< 10
CC(=O)Nc1cnc(N2CC[C@H](N(C)C(=O)Nc3cc(C(F)(F)F)cn(C)c3=O)C(F)(F)C2)cn1 (single isomer, unassigned) [Example I-35-b]	< 10
Cc1n[nH]c2ncc(N3CCC(N(C)C(=O)Nc4cc(C(F)(F)F)cn(C)c4=O)C(F)(F)C3)cc12 (single isomer, unassigned) [Example I-36-a, (R)- or (S)-1-(3,3-difluoro-1-(3-methyl-1H-pyrazolo[3,4-b]pyridin-5-yl)piperidin-4-yl)-1-methyl-3-(1-methyl-2-oxo-5-(trifluoromethyl)-1,2-dihydropyridin-3-yl)urea]	< 10
